From patent US5401736A, “4,5,6,7-tetrahydro-1H-imidazo[4,5-c]pyridine-6-carboxylic acid amide” (Kureha Kagaku Kogyo Kabushiki Kaisha, priority 1992, dated 1995)
Like-named read-outs stand apart in the source and are kept apart here.

How the values were obtained:
[1] = molecular target: T1, angiotensin II receptor type 1 (AT1), suprarenal gland of rabbit (Oryctolagus cuniculus, UniProt P34976); experiment: Receptor binding test, AT1 (tracer 3H-angiotensin II, displacer DuP753); details: room temperature, read-out: Binding inhibition ratio (%) of the test compounds at 1 μM, AT1
T1 construct: Receptor: suprarenal gland of rabbit; from tissue; host or cells: suprarenal gland (adrenal) of rabbit
T1 sequence (P34976 1-359): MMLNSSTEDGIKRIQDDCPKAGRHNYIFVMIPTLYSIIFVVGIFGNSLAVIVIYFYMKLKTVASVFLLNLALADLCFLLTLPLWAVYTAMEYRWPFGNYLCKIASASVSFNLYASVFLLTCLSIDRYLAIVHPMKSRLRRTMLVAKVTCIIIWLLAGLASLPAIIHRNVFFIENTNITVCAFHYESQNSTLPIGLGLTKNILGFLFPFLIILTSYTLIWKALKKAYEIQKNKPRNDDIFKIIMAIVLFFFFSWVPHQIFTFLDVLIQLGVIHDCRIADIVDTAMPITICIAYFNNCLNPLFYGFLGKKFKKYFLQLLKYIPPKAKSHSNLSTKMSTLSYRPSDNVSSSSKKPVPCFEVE
Description: Determination of total binding in the presence of each drug to be tested was made in the following way. A test drug of a predetermined concentration (0.025 ml; dissolved in dimethyl sulfoxide, then diluted two-fold with a buffer attached to the Drug Discovery System and used for assay), a tracer (0.025 ml), and a receptor (0.2 ml) were added to make a total volume of 0.25 ml. After incubation (at room temperature for 3 hours for the angiotensin II receptor type 1 (AT1) and at 37° C. for one hour for the type 2 (AT2)), the reaction mixture was subjected to suction filtration (using GF/C filter paper for AT1 and GF/B filter paper for AT2). The filter paper (tracer-receptor complex) after suction filtration was measured by a y-well counter (ARC-500, Aloka). The non-specific binding was determined by the similar operation by using a large excess of displacer. The specific binding at the predetermined concentration of the test drug was calculated by deducting the non-specific binding from the total binding. The ratio (%) at which the test drugs inhibit binding between radioactive ligand and receptor was determined for both AT1 and AT2 by using the test drugs of the predetermined concentration and a control drug. | *Receptor: suprarenal gland of rabbit Tracer: ^3 Hangiotensin II | (displacer: […])

[2] = molecular target: T2, angiotensin II receptor type 2 (AT2), bovine cerebellar cortex (Bos taurus, UniProt G5E6F7); experiment: Receptor binding test, AT2 (tracer 125I-Tyr4-angiotensin II, displacer angiotensin II (human)); details: 1 h, read-out: Binding inhibition ratio (%) of the test compounds at 1 μM, AT2
T2 construct: Receptor: bovine cerebellar cortex; from tissue; host or cells: bovine cerebellar cortex
T2 sequence (G5E6F7 1-362): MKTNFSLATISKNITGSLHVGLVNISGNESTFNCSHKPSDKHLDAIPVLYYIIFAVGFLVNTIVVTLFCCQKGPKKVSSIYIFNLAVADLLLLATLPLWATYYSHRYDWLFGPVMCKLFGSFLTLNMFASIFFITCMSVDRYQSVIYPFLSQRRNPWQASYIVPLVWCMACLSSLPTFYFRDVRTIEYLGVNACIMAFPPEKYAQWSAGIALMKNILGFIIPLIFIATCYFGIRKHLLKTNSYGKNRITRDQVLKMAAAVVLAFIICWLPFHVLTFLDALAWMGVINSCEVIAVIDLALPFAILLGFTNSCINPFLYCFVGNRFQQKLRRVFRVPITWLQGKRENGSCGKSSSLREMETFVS
Description: Determination of total binding in the presence of each drug to be tested was made in the following way. A test drug of a predetermined concentration (0.025 ml; dissolved in dimethyl sulfoxide, then diluted two-fold with a buffer attached to the Drug Discovery System and used for assay), a tracer (0.025 ml), and a receptor (0.2 ml) were added to make a total volume of 0.25 ml. After incubation (at room temperature for 3 hours for the angiotensin II receptor type 1 (AT1) and at 37° C. for one hour for the type 2 (AT2)), the reaction mixture was subjected to suction filtration (using GF/C filter paper for AT1 and GF/B filter paper for AT2). The filter paper (tracer-receptor complex) after suction filtration was measured by a y-well counter (ARC-500, Aloka). The non-specific binding was determined by the similar operation by using a large excess of displacer. The specific binding at the predetermined concentration of the test drug was calculated by deducting the non-specific binding from the total binding.

[3] = 1 μM, receptor: bovine cerebellar cortex, 37° C., one hour

SMILES	inhibition at 1 µM [1]	inhibition at 1 µM [2, 3]	inhibition at 1 µM [2]
CN(C)C(=O)[C@@H]1Cc2c(ncn2Cc2ccc(NC(=O)c3ccccc3C(=O)O)cc2)CN1C(=O)C(c1ccccc1)c1ccccc1 [Compound I-1]	0%	100%	
Cc1cc(Cn2cnc3c2C[C@@H](C(=O)N(C)C)N(C(=O)C(c2ccccc2)c2ccccc2)C3)ccc1NC(=O)c1ccccc1C(=O)O [Compound I-2, (S)-1-(4-(2-carboxybenzoylamino)-3-methylphenyl)methyl-N,N-dimethyl-5-diphenylacetyl-4,5,6,7-tetrahydro-1H-imidazo[4,5-c]pyridine-6-carboxamide]	0%	100%	
Cc1cc(Cn2cnc3c2C[C@@H](C(=O)N2CCOCC2)N(C(=O)C(c2ccccc2)c2ccccc2)C3)ccc1NC(=O)c1ccccc1C(=O)O [Compound I-7]	0%	100%	
CCCCc1nc2c(n1Cc1ccc(NC(=O)c3ccccc3C(=O)O)c(C)c1)C[C@@H](C(=O)N(C)C)N(C(=O)C(c1ccccc1)c1ccccc1)C2 [Compound I-12]	100%	0%	
CCCCc1nc2c(n1Cc1ccc(-c3ccccc3C(=O)O)cc1)C[C@@H](C(=O)N(C)C)N(C(=O)C(c1ccccc1)c1ccccc1)C2 [Compound I-17]	100%	0%	
CCCCc1nc2c(n1Cc1ccc(-c3ccccc3-c3nn[nH]n3)c(C)c1)C[C@@H](C(=O)N(C)C)N(C(=O)C(c1ccccc1)c1ccccc1)C2 [Compound I-19]	100%	0%	
O=C(O)c1ccc(Cn2cnc3c2C[C@@H](C(=O)N2CCOCC2)N(C(=O)C(c2ccccc2)c2ccccc2)C3)cc1 [Compound I-21]	0%	100%	
O=C([C@@H]1Cc2c(ncn2Cc2ccc(-c3ccccc3-c3nnn[nH]3)cc2)CN1C(=O)C(c1ccccc1)c1ccccc1)N1CCOCC1 [Compound I-24, 4-[[(S)-5-diphenylacetyl-1-[(2'-(1H-tetrazol-5-yl)biphenyl-4-yl)methyl]-4,5,6,7-tetrahydro-1H-imidazo[4,5-c]pyridin-6-yl]carbonyl]morpholine]	0%	100%	
CCCCc1nc2c(n1Cc1ccc(NC(=O)c3ccccc3C(=O)O)c(C)c1)C[C@@H](C(=O)N1CCOCC1)N(C(=O)C(c1ccccc1)c1ccccc1)C2 [Compound I-30]	100%	0%	
CCCCc1nc2c(n1Cc1ccc(-c3ccccc3-c3nn[nH]n3)cc1)C[C@@H](C(=O)N1CCOCC1)N(C(=O)C(c1ccccc1)c1ccccc1)C2 [Compound I-31]	100%	0%	
CCCCc1nc2c(n1Cc1ccc(-c3ccccc3-c3nn[nH]n3)cc1)C[C@@H](C(=O)N1CCSCC1)N(C(=O)C(c1ccccc1)c1ccccc1)C2 [Compound I-32]	100%	0%	
CCCCc1nc2c(n1Cc1ccc(-c3ccccc3-c3nn[nH]n3)cc1)C[C@@H](C(=O)N(CC)CC)N(C(=O)C(c1ccccc1)c1ccccc1)C2 [Compound I-40]	100%	0%	
CCCCc1nc(Cl)c(CO)n1Cc1ccc(-c2ccccc2-c2nn[nH]n2)cc1 [DuP753, reference compound]	70%		0%
Cc1cc(Cn2cnc3c2CC(C(=O)O)N(C(=O)C(c2ccccc2)c2ccccc2)C3)ccc1N (centres unmarked) [PD123177, reference compound]	0%	65%	
Cc1cc(Cn2cnc3c2CC(C(=O)O)N(C(=O)C(c2ccccc2)c2ccccc2)C3)ccc1NC(=O)c1ccccc1C(=O)O (centres unmarked) [Reference compound 1, reference compound]	0%	71%	
COC(=O)C1Cc2c(ncn2Cc2ccc(NC(=O)c3ccccc3C(=O)O)c(C)c2)CN1C(=O)C(c1ccccc1)c1ccccc1 (centres unmarked) [Reference compound 2, reference compound]	0%	72%	
CCCc1nc2c(n1Cc1ccc(-c3ccccc3-c3nn[nH]n3)c(C)c1)CC(C(=O)O)N(C(=O)C(c1ccccc1)c1ccccc1)C2 (centres unmarked) [Reference compound 26, reference compound]	78%	0%	
O=C(O)C1Cc2c(ncn2Cc2ccc(-c3ccccc3-c3nn[nH]n3)cc2)CN1C(=O)C(c1ccccc1)c1ccccc1 (centres unmarked) [Reference compound 27, reference compound]	0%	76%	
CCCc1nc2c(n1Cc1ccc(-c3ccccc3-c3nn[nH]n3)cc1)CC(C(=O)O)N(C(=O)C(c1ccccc1)c1ccccc1)C2 (centres unmarked) [Reference compound 50, reference compound]	75%	0%	
